Legend:
[1] = biological target: T1, human tyrosinase enzyme (Homo sapiens, UniProt P14679); assay: Tyrosinase inhibition assay (melanocyte lysate, L-DOPA/MBTH); type: biochemical
T1 construct: Human neonatal darkly pigmented melanocytes lysate was used as a source of tyrosinase enzyme; host or cells: human neonatal darkly pigmented melanocytes (crude NP-40 lysate supernatant)
T1 sequence (P14679 19-529): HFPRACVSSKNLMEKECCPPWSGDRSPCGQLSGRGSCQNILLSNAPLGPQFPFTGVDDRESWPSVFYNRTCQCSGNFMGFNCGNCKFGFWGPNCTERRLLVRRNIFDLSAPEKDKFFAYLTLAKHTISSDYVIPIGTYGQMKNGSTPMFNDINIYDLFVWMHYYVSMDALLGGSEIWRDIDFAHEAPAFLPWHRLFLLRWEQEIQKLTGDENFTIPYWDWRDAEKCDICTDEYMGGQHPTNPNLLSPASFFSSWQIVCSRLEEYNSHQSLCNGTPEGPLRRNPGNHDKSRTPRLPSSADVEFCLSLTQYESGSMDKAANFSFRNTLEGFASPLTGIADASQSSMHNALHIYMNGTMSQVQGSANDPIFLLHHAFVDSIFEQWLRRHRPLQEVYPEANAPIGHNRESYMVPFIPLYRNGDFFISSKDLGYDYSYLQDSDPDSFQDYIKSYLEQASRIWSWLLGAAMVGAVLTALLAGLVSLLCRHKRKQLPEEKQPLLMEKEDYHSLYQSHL
Experimental: Human neonatal darkly pigmented melanocytes lysate was used as a source of tyrosinase enzyme. The human melanocyte cells were purchased from Cascade Biologics (Code: C-202-5C) and cultured using standard methods. A confluent 25 cm^2 flask of melanocytes was washed with 2 ml of ice-cold PBS (phosphate buffered saline), followed by incubation with 1 ml of (0.025% w/v) Trypsin (0.01% w/v) EDTA (ethylenediamine tetraacetic acid) solution for 2 minutes at 37° C. to release the adherent cells. Trypsin was neutralized by the addition of 3 ml ‘neutralizer’ solution (sterile PBS solution containing 0.5% w/vnewborn bovine serum). […] The protein content in the lysate was measured by the Bradford reagent method (bovine serum albumin standard). […]
The solution phase tyrosinase activity assay was initiated by mixing 50 μl of 50 mM potassium phosphate buffer (pH 6.8), 60 μl of 10 mM MBTH (3-Methyl-2-benzothiazolinonhydrazon hydrochloride hydrate) in 10 mM potassium phosphate buffer, 30 μl of 10 mM L-DOPA (L-3,4-dihydroxyphenylalanine) in 10 mM potassium phosphate buffer, 4 μl of melanocytic cell extract (about 2 μg/μl protein), and 6 μl of distilled water (to make up the volume to 150 μl), and incubated for about 1 hour at 37° C. […] Then 200 μl of the supernatant was transferred to a 96-well flat-bottom plate, and the OD (optical density) read in a TECAN plate-reader (540 nm transmission). […]

[2] = tested on: Melanoderm cultures (human keratinocytes and melanocytes), melanin production; assay: Assay of pigment production by Living Skin Equivalents (Melanoderm); type: cell-based; design: inhibition: dose or concentration left out as unconfirmed; conditions: 14 days, melanin normalized to protein levels; for % inhibition of melanin production compared to vehicle control: 10 μM; for inhibition: Homo sapiens, 336 h, read-out: % inhibition of melanin production compared to vehicle control
Source text: Assay of pigment production by Living Skin Equivalents (Melanoderms™)
So called reconstructed pigmented ‘skin’ cultures containing keratinocytes and melanocytes are commercially available and, for example, can be purchased from MatTek Corp, 200, Homer Avenue, Ashland, Mass., USA, under the trade name Melanoderm™. Melanoderms™ (catalogue reference MEL-300) containing melanocytes from […] donor skin were maintained in EPI-100-NMM113 media following the manufacturer's instructions and using standard methods for the maintenance of cultured mammalian cells under aseptic conditions. The Melanoderm™ cultures were treated with test agents for a total of 14 days. During the 14 day culture period the melanocytes in the Melanoderm™ cultures synthesise melanin in specialised vesicular structures called melanosomes. The pigmented melanosomes are transferred to the adjacent keratinocytes and the transferred-melanosomes tend to accumulate over the nucleus of the keratinocytes. This process is the same as occurs in skin in vivo and accordingly the Melanoderm™ culture is considered to be a very good test ‘skin tissue’ to mimic the effect of the skin pigmentation process in vivo. A compound that leads to a reduction in melanin production in the Melanoderm™ culture over 14 days by 10% or more is considered to have a positive pigment reducing effect. It is important that the reduction in pigment occurs without substantive loss of cell viability such that the inhibitory effect of the test compound is due to its biological function rather than due to cell toxicity.
Culture media changes and re-dosing of compounds at selected concentrations took place every 2 or 3 days during the test period. Melanoderm™ cultures were also treated with control materials including the vehicle (dimethylsulphoxide (DMSO)) used to dissolve the test material and a positive control material known to lead to the synthesis of reduced amounts of melanin in the cultures. 4-ethylresorcinol was used as a positive control. After 14 days culture, transmitted-light microscopy images were captured for every culture using a Leica DM IL microscope at ×20 magnification.
The cell viability of the cultures was assessed using the so called WST-1 (Water Soluble Tetrazolium Salt-1) assay purchased from Roche Applied Science and following the manufacturer's instructions. The stable tetrazolium salt WST-1 is cleaved to a soluble formazan dye by a complex cellular mechanism that occurs primarily at the cell surface. This bioreduction is largely dependent on the glycolytic production of NADPH in viable cells. Therefore, the amount of soluble formazan dye formed in the culture medium directly correlates to the number of metabolically active cells in the culture. Cultures were incubated with WST-1 in the medium for 1 hour and production of formazan measured at 450 nm using a spectrophotometer plate reader, e.g. a BMG Labtech FLUOstar plate reader. Cultures were considered ‘viable’ if they generated greater than 80% of the control value of formazan product. Subsequently the culture was washed briefly in phosphate buffer solution (PBS) and total melanin and protein extracted together from each culture using 250 μl Solvable™ (Perkin Elmer product 6NE9100) reagent at 60° C. overnight as recommended by the manufacturer. The total protein content using a sample of the extracts was determined using the so called BCA (bicinchoninic acid) assay. The BCA assay may be purchased from Pierce Chemical Company and conducted following the manufacturer's instructions. Melanin was determined by measuring the absorbance at 485 nm, for example using a BMG Labtech FLUOstar plate reader. The amount of melanin extracted from each culture was determined by reference to a standard synthetic-melanin curve (Sigma Aldrich Chemical Company catalogue reference M8631). […]

| inhibition at 10 µM [1] | Structure (SMILES) | % inhibition of melanin production compared to vehicle control [2] | inhibition [2] |
| --- | --- | --- | --- |
| 29% | CCc1ccc(O)cc1O [4-ethyl resorcinol] | – | – |
| – | O=C(COc1ccccc1)NC(=S)Nc1ccc(I)cn1 [NC-0475, N-[[(5-iodo-2-pyridinyl)-amino]-thioxomethyl]-2-phenoxyacetamide] | 53% | > 50% |
| – | O=C(COc1ccccc1)NC(=S)Nc1ccc(Cl)cn1 [S12, N-[[(5-chloro-2-pyridinyl)-amino]-thioxomethyl]-2-phenoxyacetamide] | 47% | 40 to 50% |
| – | Cc1ccc(OCC(=O)NC(=S)Nc2ccc(Cl)cn2)cc1 [S13, N-[[(5-chloro-2-pyridinyl)-amino]-thioxomethyl]-2-(4-methylphenoxy)-acetamide] | 35% | 30 to 40% |
| – | O=C(COc1ccccc1)NC(=S)Nc1ccccn1 [S14, N-[[2-pyridinylamino]-thioxomethyl]-2-phenoxyacetamide] | – | 10% |
| – | Cc1cc(OCC(=O)NC(=S)Nc2ccc(I)cn2)cc(C)c1Cl [S15, N-[[(5-iodo-2-pyridinyl)-amino]-thioxomethyl]-2-(4-chloro-3,5-dimethylphenoxy)-acetamide] | 43% | 40 to 50% |
| – | CC(C)c1ccc(OCC(=O)NC(=S)Nc2ccc(Cl)cn2)cc1 [S16, N-[[(5-chloro-2-pyridinyl)-amino]-thioxomethyl]-2-[4-(1-methylethyl)-phenoxy]-acetamide] | 38% | 30 to 40% |
| – | O=C(COc1ccc(Cl)cc1Cl)NC(=S)Nc1ccc(I)cn1 [S17, N-[[(5-iodo-2-pyridinyl)-amino]-thioxomethyl]-2-(2,4-dichlorophenoxy)-acetamide] | 43% | 40 to 50% |
| – | O=C(COc1ccc(Cl)cc1)NC(=S)Nc1ccc(I)cn1 [S18, N-[[(5-iodo-2-pyridinyl)-amino]-thioxomethyl]-2-(4-chlorophenoxy)-acetamide] | 28% | 20 to 30% |
| – | CC(C)(C)c1ccc(OCC(=O)NC(=S)Nc2ccc(I)cn2)cc1 [S19, N-[[(5-iodo-2-pyridinyl)-amino]-thioxomethyl]-2-[4-(1,1-dimethylethyl)phenoxy]-acetamide] | 22% | 20 to 30% |
| – | Cc1cccc(OCC(=O)NC(=S)Nc2ccc(I)cn2)c1 [S20, N-[[(5-iodo-2-pyridinyl)-amino]-thioxomethyl]-2-(3-methylphenoxy)-acetamide] | 22% | 20 to 30% |
| – | Cc1nc(NC(=S)NC(=O)COc2ccccc2)ccc1I [S21, N-[[(5-iodo-6-methyl-2-pyridiny)lamino]-thioxomethyl]-2-phenoxyacetamide] | 39% | 30 to 40% |
